“Also recorded” adds a separate entry of the source.
Experiments:
HCT116 cells = test: rAAV-mediated gene targeting of the CCR5 locus in HCT116 cells, correct targeting scored by diagnostic PCR of G418-resistant clones; format: cell-based, human
Experimental: The human colon cancer cell line HCT116 was obtained from the American Type Culture Collection and maintained in McCoy's 5A media (Mediatech Inc.) containing 10% heat inactivated fetal calf serum (Cambrex), 2 mM L-glutamine, 100 U/ml penicillin and […] streptomycin (Invitrogen). The cells were grown at 37° C. in a humidified incubator with 5% CO2. Cell lines derived from correct targeting events were grown either in the presence of 1 mg/ml G418 or 1 μg/mL puromycin.
The targeting vectors, Ku70-Neo (Fattah et al., DNA Repair, 2008, 7:762-774) and CCR5-Neo (Fattah et al., PNAS, 2008, 105:8703-8708), were constructed by using the rAAV system as described (Kohli et. al., Nucl. Acids Res., 2004, 32:e3). All virus packaging and infections were performed as described (Kohli et. al., Nucl. Acids Res., 2004, 32:e3).
Genomic DNA for PCR screening was isolated by using phenol extraction followed by ethanol precipitation. DNA-PKcs- and CCR5-targeting events were identified by PCR using conditions described elsewhere (Ruis et. al., Mol. Cell. Biol., 2008, 28:6182-6195; Kohli et. al., Nucl. Acids Res., 2004, 32:e3). The primers used to screen for DNA-PKcs targeting events were LArmR, […] (SEQ ID NO:5) and PKcs81-83F1, […]. (SEQ ID NO:6) The primers used to screen for CCR5 targeting events were CF, GCACCATGCTTGACCCAG (SEQ ID NO:7) and NR, […] (SEQ ID NO:8). […]

DNA-PK complex = biological target: T1, DNA-PK complex (Homo sapiens, UniProt P78527); test: DNA-PK complex kinase activity in extracts of treated cells, standard p53 peptide assay; format: cell-based; settings: HCT116 cells treated with 10 μM at time 0 and at 4 hr post-infection
T1 construct: whole cell extracts were prepared from a portion of the cells and assayed for DNA-PK complex kinase activity; endogenous in cells; host or cells: HCT116 (controls: MO59J, MO59K)
Experimental: Nuclear extracts were incubated on ice for 15 min with preswollen dsDNA-cellulose (Sigma). Nuclear extract (100 μg) was used with each sample. Following incubation on ice, the samples were washed twice in Z′ 0.05 buffer (25 mM HEPES-KOH, 50 mM KCl, 10 mM MgCl2, 20% glycerol, 0.1% IGEPAL™, 1 mM dithiothreitol). After the washing steps, the samples were centrifuged and the precipitate was resuspended in 100 μl Z′ 0.05 buffer. […] The wild-type peptide can be phosphorylated by DNA-PK at the serine residue, while the mutant peptide is not recognized by DNA-PK. Following incubation, polyacrylamide gel electrophoresis was carried out. The gel was vacuum dried and exposed to X-ray film. The amount of phosphorylated peptide was quantified using a phosphorimager.

O=c1cc(N2CCOCC2)oc2c(-c3cccc4c3sc3ccccc34)cccc12 [NU7441, 8-dibenzothiophen-4-yl-2-morpholin-4-yl-chromen-4-one]
increase of frequency of gene targeting (HCT116 cells; DNA-PKcs kinase inhibition by NU7441, rAAV CCR5 vector, compared to wild-type cells): ~7 fold | correct gene targeting frequency (HCT116 cells; HCT116, 10 μM NU7441 at time 0 and again at 4 hr post-infection, rAAV CCR5 vector, 17 of 229 G418-resistant clones): 7.4% | duration of DNA-PK / DNA-PKcs inhibition (DNA-PK complex): a matter of hours; also recorded: several hours | DNA-PK activity (DNA-PK complex; whole cell extracts): nearly completely ablated

From patent publication US20130273656A1, “METHOD TO INCREASE GENE TARGETING FREQUENCY” (Regents of the University of Minnesota, priority 2010, published 2013)
